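Five compound concentrations were applied to cells in 96-well plates for 48 hours; endpoints were derived by simple linear interpolation of the resulting dose-response curve. The concentration for 50% growth inhibition is given as GI50.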 Calls of active or inactive are those of the source. Cut-off read from the data, not from the text of the source: active = GI50 up to about 1.1 µM and inactive = higher.
Experiments:
Assay in all cases: NCI anticancer screen, dose series, 48 h
SW-620 = tested on: SW-620
MCF7 = tested on: MCF7
LOX IMVI = tested on: LOX IMVI
MDA-N = tested on: MDA-N
U-251 = tested on: U-251
COLO 205 = tested on: COLO 205
SF-295 = tested on: SF-295
SK-OV-3 = tested on: SK-OV-3
MDA-MB-231 = tested on: MDA-MB-231
SN12C = tested on: SN12C
HL-60 = tested on: HL-60
PC-3 = tested on: PC-3
SNB-19 = tested on: SNB-19
IGROV-1 = tested on: IGROV-1
ACHN = tested on: ACHN
UACC-62 = tested on: UACC-62
NCI-H522 = tested on: NCI-H522
SR = tested on: SR
RPMI-8226 = tested on: RPMI-8226
A498 = tested on: A498

Row | Compound | GI50 (SW-620) | GI50 (MCF7) | GI50 (LOX IMVI) | GI50 (MDA-N) | GI50 (U-251) | GI50 (COLO 205) | GI50 (SF-295) | GI50 (SK-OV-3) | GI50 (MDA-MB-231) | GI50 (SN12C) | GI50 (HL-60) | GI50 (PC-3) | GI50 (SNB-19) | GI50 (IGROV-1) | GI50 (ACHN) | GI50 (UACC-62) | GI50 (NCI-H522) | GI50 (SR) | GI50 (RPMI-8226) | GI50 (A498)
1 | CC1=CC(=O)/C(=C/N2C(=O)CNC2=S)C(=O)O1 | > 100 µM (inactive) | > 100 µM (inactive) | > 100 µM (inactive) | > 100 µM (inactive) | > 100 µM (inactive) | > 100 µM (inactive) | > 100 µM (inactive) | > 100 µM (inactive) | > 100 µM (inactive) | > 100 µM (inactive) | > 100 µM (inactive) | > 100 µM (inactive) | > 100 µM (inactive) | > 100 µM (inactive) | > 100 µM (inactive) |  |  |  |  | 
2 | Cn1nnc2c3c(N(CCO)CCO)ccnc3ccc21 | > 100 µM (inactive) | 47.9 µM (inactive) | > 100 µM (inactive) | > 100 µM (inactive) |  | 95.9 µM (inactive) | > 100 µM (inactive) | > 100 µM (inactive) | > 100 µM (inactive) | > 100 µM (inactive) | > 10 µM (inactive) | 65.6 µM (inactive) | 49.1 µM (inactive) | > 100 µM (inactive) | > 100 µM (inactive) | > 100 µM (inactive) | > 10 µM (inactive) | 19.1 µM (inactive) |  | 
3 | O=C1/C(=C/c2ccc(OC(=O)c3ccc(Cl)cc3)cc2)CCC/C1=C\c1ccc(OC(=O)c2ccc(Cl)cc2)cc1 | > 100 µM (inactive) | > 100 µM (inactive) | > 100 µM (inactive) | > 100 µM (inactive) | 64.3 µM (inactive) | > 100 µM (inactive) |  |  | 46.5 µM (inactive) | > 100 µM (inactive) | > 100 µM (inactive) | > 100 µM (inactive) | > 100 µM (inactive) | > 100 µM (inactive) | > 100 µM (inactive) | > 100 µM (inactive) | > 100 µM (inactive) | > 100 µM (inactive) | > 100 µM (inactive) | 
4 | CCOC(=O)C(Cc1ccc(OC(=O)OC(C)(C)C)cc1)NC(=O)OC(C)(C)C (stereo not given) | 34.7 µM (inactive) | > 100 µM (inactive) | 44.1 µM (inactive) | > 100 µM (inactive) | 37.2 µM (inactive) | 39.7 µM (inactive) | > 100 µM (inactive) | > 100 µM (inactive) | 41.6 µM (inactive) | 44.8 µM (inactive) | 28.2 µM (inactive) | 34.5 µM (inactive) | > 100 µM (inactive) | 50.1 µM (inactive) | 74.1 µM (inactive) | > 100 µM (inactive) | > 100 µM (inactive) | 26.4 µM (inactive) |  | 
5 | CC1=CC(=O)/C(=C/NC(=S)C(N)=S)C(=O)O1 | > 100 µM (inactive) | > 100 µM (inactive) | > 100 µM (inactive) | > 100 µM (inactive) | > 100 µM (inactive) | > 100 µM (inactive) | > 100 µM (inactive) | > 100 µM (inactive) | > 100 µM (inactive) | > 100 µM (inactive) | 47.5 µM (inactive) | > 100 µM (inactive) | > 100 µM (inactive) | > 100 µM (inactive) | > 100 µM (inactive) | > 100 µM (inactive) | > 100 µM (inactive) | 47.2 µM (inactive) | > 100 µM (inactive) | 
6 | COc1cc(C(=O)NNC(=O)c2cc(Br)ccc2NC(=O)c2cccs2)cc(OC)c1OC | 28.1 µM (inactive) | 14.4 µM (inactive) | 15.3 µM (inactive) | 24.8 µM (inactive) | 17.1 µM (inactive) | 12.9 µM (inactive) | 19.1 µM (inactive) | 9.16 µM (inactive) |  | 20 µM (inactive) | 14.8 µM (inactive) | 24 µM (inactive) | 23.1 µM (inactive) | 22.6 µM (inactive) | 17 µM (inactive) | 16.7 µM (inactive) | 20.7 µM (inactive) | 22.9 µM (inactive) | 13.2 µM (inactive) | 19.1 µM (inactive)
7 | COC(=O)C1(C(=O)OC)CC2=C(S(=O)(=O)c3ccccc3)C[C@H](C#N)[C@H]2C1 | > 100 µM (inactive) | 24 µM (inactive) | > 100 µM (inactive) | 79.4 µM (inactive) | > 100 µM (inactive) | 68.5 µM (inactive) | > 100 µM (inactive) | > 100 µM (inactive) | > 100 µM (inactive) | > 100 µM (inactive) | > 100 µM (inactive) | > 100 µM (inactive) | 64.6 µM (inactive) | 44.6 µM (inactive) | > 100 µM (inactive) | > 100 µM (inactive) | 46.3 µM (inactive) |  |  | > 100 µM (inactive)
8 | C/C(=C/C(=O)Nn1c(Cc2ccccc2)n[nH]c1=O)C(=O)O | > 100 µM (inactive) | > 100 µM (inactive) | > 100 µM (inactive) | > 100 µM (inactive) | > 100 µM (inactive) | > 100 µM (inactive) | > 100 µM (inactive) | > 100 µM (inactive) | > 100 µM (inactive) | > 100 µM (inactive) | > 100 µM (inactive) | > 100 µM (inactive) | > 100 µM (inactive) | > 100 µM (inactive) | > 100 µM (inactive) | > 100 µM (inactive) | > 100 µM (inactive) |  | > 100 µM (inactive) | 
9 | Nc1c(Br)cc(-c2cc(Br)c(N)c(Br)c2)cc1Br | > 100 µM (inactive) | > 100 µM (inactive) | > 100 µM (inactive) | > 100 µM (inactive) |  | > 100 µM (inactive) | > 100 µM (inactive) | > 100 µM (inactive) | > 100 µM (inactive) | > 100 µM (inactive) | > 100 µM (inactive) | > 100 µM (inactive) | > 100 µM (inactive) | > 100 µM (inactive) | > 100 µM (inactive) | > 100 µM (inactive) | > 100 µM (inactive) | > 100 µM (inactive) | > 100 µM (inactive) | 
10 | COc1ccc(/C=C2/C(=O)N(/C=C3\C(=O)Oc4ccccc4C3=O)/C(=N/C(C)=O)N2C)cc1OC | > 100 µM (inactive) | > 100 µM (inactive) | > 100 µM (inactive) | > 100 µM (inactive) | > 100 µM (inactive) | > 100 µM (inactive) | > 100 µM (inactive) | > 100 µM (inactive) | > 100 µM (inactive) | > 100 µM (inactive) | > 100 µM (inactive) | > 100 µM (inactive) |  | > 100 µM (inactive) | > 100 µM (inactive) | > 100 µM (inactive) | > 100 µM (inactive) | > 100 µM (inactive) | > 100 µM (inactive) | 
11 | CC(C)(C)NCc1cc(C(C)(C)C)cc(-c2ccc(Cl)cc2)c1O |  | 14.6 µM (inactive) |  | 16.1 µM (inactive) | 11.9 µM (inactive) | 10.7 µM (inactive) | 17.3 µM (inactive) | 17.1 µM (inactive) | 11.2 µM (inactive) | 15.2 µM (inactive) | 5.33 µM (inactive) |  | 15.7 µM (inactive) | 11.2 µM (inactive) | 13.8 µM (inactive) | 13.7 µM (inactive) | 11 µM (inactive) | 10.9 µM (inactive) | 9.53 µM (inactive) | 
12 | c1cc2ccc3cc4ncccc4c4ccc(c1)c2c34 | 17.5 µM (inactive) | 0.338 µM (active) | 12.1 µM (inactive) | 41.9 µM (inactive) | 17.9 µM (inactive) | 9.82 µM (inactive) | 17.1 µM (inactive) | 37.2 µM (inactive) | 20.8 µM (inactive) | 31.4 µM (inactive) | 33.2 µM (inactive) | 33 µM (inactive) | 90.8 µM (inactive) | 1.32 µM (inactive) | 6.87 µM (inactive) | 20.6 µM (inactive) | 16.7 µM (inactive) | < 0.01 µM (active) | 10.1 µM (inactive) | 
13 | C/C(O)=C/C(=O)c1[nH]c(C(=O)O)cc1C1CCN(Cc2ccccc2)C1=O (stereo not given) | 29.5 µM (inactive) | 22.1 µM (inactive) |  | 17.2 µM (inactive) | 34.2 µM (inactive) | 18 µM (inactive) | 17.9 µM (inactive) | 22.8 µM (inactive) | 33.2 µM (inactive) |  |  | 32.7 µM (inactive) | 22.7 µM (inactive) | 25.3 µM (inactive) | 28.6 µM (inactive) | 18.5 µM (inactive) | 23.7 µM (inactive) |  | 20.7 µM (inactive) | 41.1 µM (inactive)
14 | O=c1n(CCO)nc2n1CCCN2 | > 100 µM (inactive) | > 100 µM (inactive) | > 100 µM (inactive) | > 100 µM (inactive) | > 100 µM (inactive) | > 100 µM (inactive) | > 100 µM (inactive) | > 100 µM (inactive) | > 100 µM (inactive) | > 100 µM (inactive) | > 100 µM (inactive) | > 100 µM (inactive) | > 100 µM (inactive) | > 100 µM (inactive) | > 100 µM (inactive) | > 100 µM (inactive) |  | > 100 µM (inactive) | > 100 µM (inactive) | 
15 | O=C(CC(=O)CC(O)(C(F)(F)F)C(F)(F)F)CC(O)(C(F)(F)F)C(F)(F)F | > 10 µM (inactive) | > 10 µM (inactive) | > 10 µM (inactive) | > 10 µM (inactive) | > 10 µM (inactive) | > 10 µM (inactive) | > 10 µM (inactive) | > 10 µM (inactive) | > 10 µM (inactive) | > 10 µM (inactive) | > 10 µM (inactive) |  | > 10 µM (inactive) | > 10 µM (inactive) | > 10 µM (inactive) | > 10 µM (inactive) | > 10 µM (inactive) |  | > 10 µM (inactive) | > 10 µM (inactive)
16 | COc1cc2c(c(OC)c1OC)-c1ccc(SC)c(=O)cc1[C@@H](OC(C)=O)CC2 | < 0.01 µM (active) | < 0.01 µM (active) | < 0.01 µM (active) | < 0.01 µM (active) | < 0.01 µM (active) | < 0.01 µM (active) | < 0.01 µM (active) |  | < 0.01 µM (active) | < 0.01 µM (active) | < 0.01 µM (active) | < 0.01 µM (active) | < 0.01 µM (active) | < 0.01 µM (active) | < 0.01 µM (active) | < 0.01 µM (active) | < 0.01 µM (active) |  |  | 

— ChEMBL document CHEMBL1201862, “PubChem BioAssay data set” (2004)
